{"source": "patent US20230324392A1", "about": "“METHODS AND COMPOSITIONS FOR TARGETING CYTOSOLIC DSDNA SIGNALING IN CHROMOSOMALLY UNSTABLE CANCERS” (MEMORIAL SLOAN KETTERING CANCER CENTER, priority 2020, published 2023)", "key": {"B16F10 cells": {"tested_on": "B16F10 cells", "assay": "Tail vein inoculation of B16F10 cells in C57BL/6 mice, survival", "type": "in vivo, mouse", "method": "(§1) Animal metastasis studies: Animal experiments were performed in accordance with protocols approved by the MSKCC Institutional Animal Care and Use Committee. […] There was no need to randomize animals. Investigators were not blinded to group allocation. For tail vein injections, 5×10^4 4T1, 2.5×10^4 B16F10, or 10^5 CT26 cells were injected into the tail vein of 6-7-week old BALB/c (4T1 and CT26) or C57BL/6 (B16F10) mice. Metastasis was primarily assessed through overall survival. Overall survival endpoint was met when the mice died or met the criteria for euthanasia under the IACUC protocol. […] Surface lung metastases were assessed at endpoint by direct visual examination after euthanasia at which points lungs were perfused and fixed in 4% paraformaldehyde (4T1 and B16F10 experiments) or stained using India-ink (CT26 experiments). Furthermore, lung metastasis after injection of 4T1 cells was qualitatively assessed using routine hematoxylin and eosin (H&E) staining. […] Primary tumors were surgically excised on day 7 after implantation and metastatic dissemination was assessed by monitoring overall survival or on day 30 through quantification of surface lung metastases upon euthanasia. The length (L) and width (W) of the primary tumors were measured using calipers. Tumor size was calculated according to the following formula: L*W2/2. […]"}, "4T1 cells": {"tested_on": "4T1 cells", "assay": "Tail vein inoculation of 4T1 cells in BALB/c mice, survival", "type": "in vivo, mouse", "details": "4T1, BALB/c, daily IP, vs vehicle", "method": "as §1"}, "4T1 primary tumor": {"tested_on": "4T1 primary tumor", "assay": "Orthotopically transplanted primary 4T1 tumors, tumor size", "type": "in vivo, mouse", "details": "orthotopic, vs vehicle", "method": "as §1"}, "[1]": {"assay": "Tolerability of prolonged daily C-176 treatment, survival and necropsy", "type": "in vivo, mouse", "excerpt": "In B16F10-bearing animals, nearly 30% of the treated group had no evidence of disease at 98 days (FIG. 4A). […] Thus, the therapeutic effect of the STING inhibitors on metastasis is primarily mediated through inhibition of cancer cell-intrinsic STING."}, "[2]": {"tested_on": "B16F10, 4T1, and CT26 cells", "assay": "xCELLigence assay for cell invasion", "type": "cell-based, mouse", "details": "C176 at 1 μM; all three metastatic cancer cell lines", "method": "xCELLigence assayfor cell invasion: Assessment of the impact of STING inhibition on cell invasion was conducted using the xCELLigence system CIM plates (ACEA Biosciences, San Diego, CA). The upper chamber was coated with 1 mg/ml of growth factor complete Matrigel (#356234, Corning, UK) made up in serum free media (SFM) and incubated at 37° C. for 4 hours to allow polymerisation. A total of 4×10^4 cells in serum-free media were seeded into the upper chamber insert with C176 at 1 μM (Probechem, China) or DMSO control. The lower chamber was filled with complete media. The CIM plates were incubated at 1 hour at 37° C. and 5% C02 for cell attachment. Plates were then monitored using the xCELLigence system. Changes in impedance resulting from cell invasion to the underside of wells were recorded every 15 minutes and monitored for a total of 60 hours."}, "[3]": {"assay": "Blood counts of mice treated with C-176", "type": "in vivo, mouse", "details": "for NEUT: reference range 9.86-39.11; for LYMPH: reference range 48.81-83.82"}, "STING-KO B16F10 cells": {"tested_on": "STING-KO B16F10 cells", "assay": "Tail vein inoculation of STING-KO B16F10 cells in C57BL/6 mice, survival", "type": "in vivo, mouse", "details": "C57BL/6 mice inoculated with STING-KO B16F10 cells", "method": "as §1"}, "[4]": {"assay": "Blood chemistry of mice treated with C-176", "type": "in vivo, mouse", "details": "animals 1, 2"}, "[5]": {"details": "automated differential, animals 1, 2"}, "[6]": {"details": "complete blood count, animals 1, 2"}, "[7]": {"details": "manual differential, animals 1, 2"}}, "note": "Where “and” joins values, the source holds several entries; their conditions need not be identical. Equal values may be shown once.", "data": [{"molecule": "O=C(Nc1ccc(I)cc1)c1ccc([N+](=O)[O-])o1", "note": "[C-176]", "values": [{"measurement": "survival of tumor bearing mice", "setting": "B16F10 cells; B16F10, C57BL/6, daily IP, vs vehicle", "result": "significantly prolonged survival"}, {"measurement": "treated group with no evidence of disease", "setting": "B16F10 cells; B16F10-bearing animals, at 98 days", "result": "~30", "unit": "%"}, {"measurement": "survival of tumor bearing mice", "setting": "4T1 cells", "result": "significantly prolonged survival"}, {"measurement": "4T1 primary tumor size", "setting": "4T1 primary tumor", "result": "did not have a significant impact"}, {"measurement": "end-of-treatment necropsy", "setting": "[1]; compared to vehicle-treated animals", "result": "no distinct pathologic abnormalities"}, {"measurement": "tolerability / clinically evident toxicity", "setting": "[1]; prolonged daily treatment, vs vehicle-treated animals", "result": "well tolerated and did not lead to any clinically evident toxicity"}, {"measurement": "blood counts and blood chemistries", "setting": "[1]; summary of Tables 9 and 10", "result": "within normal limits"}, {"measurement": "baseline cortisol levels", "setting": "[1]; vs vehicle", "result": "lower baseline cortisol levels"}, {"measurement": "invasion", "setting": "[2]", "result": "significant reductions"}, {"measurement": "BASO", "setting": "[3]; automated differential, animals 1, 2, reference range 0.00-1.84", "result": "0% and 0.1%"}, {"measurement": "EO#", "setting": "[3]; automated differential, animals 1, 2, reference range 0.01-0.49", "result": "0.1 K/uL and 0.16 K/uL"}, {"measurement": "MONO#", "setting": "[3]; automated differential, animals 1, 2, reference range 0.21-1.37", "result": "0.22 K/uL and 0.25 K/uL"}, {"measurement": "NEUT#", "setting": "[3]; automated differential, animals 1, 2, reference range 0.58-3.83", "result": "2.98 K/uL and 4.69 K/uL"}, {"measurement": "LYMPH#", "setting": "[3]; automated differential, animals 1, 2, reference range 2.22-11.56", "result": "3.35 K/uL and 3.14 K/uL"}, {"measurement": "MONO", "setting": "[3]; automated differential, animals 1, 2, reference range 3.29-14.33", "result": "3.3% and 3%"}, {"measurement": "WBC#", "setting": "[3]; automated differential, animals 1, 2, reference range 3.48-14.84", "result": "6.65 K/uL and 8.25 K/uL"}, {"measurement": "NEUT", "setting": "[3]; [5]", "result": "44.8% and 56.9%"}, {"measurement": "LYMPH", "setting": "[3]; [5]", "result": "50.4% and 38.1%"}, {"measurement": "EO", "setting": "[3]; automated differential, animals 1, 2, reference range printed 7 0.07-4.91^", "result": "1.5% and 1.9%"}, {"measurement": "PDW", "setting": "[3]; [6]", "result": "9.9 fL and 10.3 fL"}, {"measurement": "RDW-SD", "setting": "[3]; [6]", "result": "29.1 fL and 29.6 fL"}, {"measurement": "RET", "setting": "[3]; complete blood count, animals 1, 2, reference range 2.56-4.56", "result": "4.04% and 5.29%"}, {"measurement": "MPV", "setting": "[3]; complete blood count, animals 1, 2, reference range 4.6-5.9", "result": "7 fL and 7.3 fL"}, {"measurement": "RBC", "setting": "[3]; complete blood count, animals 1, 2, reference range 6.93-12.24", "result": "10.18 M/uL and 9.5 M/uL"}, {"measurement": "HGB", "setting": "[3]; complete blood count, animals 1, 2, reference range 12.4-20.5", "result": "15.3 g/dL and 14.4 g/dL"}, {"measurement": "MCH", "setting": "[3]; complete blood count, animals 1, 2, reference range 13.0-17.6", "result": "15 pg and 15.2 pg"}, {"measurement": "RDW-CV", "setting": "[3]; complete blood count, animals 1, 2, reference range 16.9-23.5", "result": "25.4% and 24%"}, {"measurement": "MCHC", "setting": "[3]; complete blood count, animals 1, 2, reference range 23.3-33.1", "result": "32.3 g/dL and 31.9 g/dL"}, {"measurement": "HCT", "setting": "[3]; complete blood count, animals 1, 2, reference range 42.1-68.3", "result": "47.3% and 45.2%"}, {"measurement": "MCV", "setting": "[3]; complete blood count, animals 1, 2, reference range 50.7-64.4", "result": "46.5 fL and 47.6 fL"}, {"measurement": "RET#", "setting": "[3]; complete blood count, animals 1, 2, reference range 294-444", "result": "411.3 K/uL and 502.6 K/uL"}, {"measurement": "PLT", "setting": "[3]; complete blood count, animals 1, 2, reference range 420-1698", "result": "1137 K/uL and 1026 K/uL"}, {"measurement": "BAND", "setting": "[3]; manual differential, animal 1", "result": 1, "unit": "%"}, {"measurement": "EO", "setting": "[3]; manual differential, animals 1, 2, reference range 0.07-4.91", "result": "2% and 1%"}, {"measurement": "NEUT", "setting": "[3]; [7]", "result": "45% and 57%"}, {"measurement": "LYMPH", "setting": "[3]; [7]", "result": "52% and 42%"}, {"measurement": "survival advantage beyond STING KO", "setting": "STING-KO B16F10 cells", "result": "did not provide an additional survival advantage"}, {"measurement": "A/G Ratio", "setting": "[4]", "result": "1.3 and 1.4"}, {"measurement": "Anion Gap", "setting": "[4]", "result": "26 and 32"}, {"measurement": "BASELINE CORTISOL", "setting": "[4]", "result": "0.811 and 0.662"}, {"measurement": "BUN/CREA Ratio", "setting": "[4]", "result": "85.0 and 84.2"}, {"measurement": "DBIL", "setting": "[4]", "result": 0.0, "unit": "mg/dL"}, {"measurement": "GGT", "setting": "[4]", "result": 0, "unit": "U/L"}, {"measurement": "IBIL", "setting": "[4]", "result": 0.1}, {"measurement": "Na/K", "setting": "[4]", "result": "19 and 16"}, {"measurement": "TCO2", "setting": "[4]", "result": "24 mEq/L and 18 mEq/L"}, {"measurement": "CREA", "setting": "[4]; reference range 0.2-0.5", "result": "0.20 mg/dL and 0.19 mg/dL"}, {"measurement": "TBIL", "setting": "[4]; reference range 0.2-0.6", "result": 0.1, "unit": "mg/dL"}, {"measurement": "GLOB", "setting": "[4]; reference range 1.7-2.2", "result": "2.3 g/dL and 1.9 g/dL"}, {"measurement": "ALB", "setting": "[4]; reference range 2.4-4.3", "result": "3.1 g/dL and 2.6 g/dL"}, {"measurement": "TP", "setting": "[4]; reference range 4.8-7.2", "result": "5.4 g/dL and 4.5 g/dL"}, {"measurement": "BUN", "setting": "[4]; reference range 5.0-28", "result": "17 mg/dL and 16 mg/dL"}, {"measurement": "K", "setting": "[4]; reference range 7.3-11.1", "result": "8.1 mEq/L and 9.7 mEq/L"}, {"measurement": "Ca", "setting": "[4]; reference range 9.5-12.5", "result": "10.0 mg/dL and 9.9 mg/dL"}, {"measurement": "ALT", "setting": "[4]; reference range 27-195", "result": "26 U/L and 32 U/L"}, {"measurement": "AST", "setting": "[4]; reference range 54-77", "result": "134 U/L and 69 U/L"}, {"measurement": "CHOL", "setting": "[4]; reference range 55-169", "result": "103 mg/dL and 93 mg/dL"}, {"measurement": "TRIG", "setting": "[4]; reference range 67-289", "result": "82 mg/dL and 80 mg/dL"}, {"measurement": "ALP", "setting": "[4]; reference range 105-370", "result": "61 U/L and 40 U/L"}, {"measurement": "CL", "setting": "[4]; reference range 111-134", "result": "115 mEq/L and 113 mEq/L"}, {"measurement": "Na", "setting": "[4]; reference range 145-181", "result": "157 mEq/L and 153 mEq/L"}, {"measurement": "GLU", "setting": "[4]; reference range 172-372", "result": "205 mg/dL and 210 mg/dL"}]}]}
